Data: ChEMBL document CHEMBL1150480, “Photoreactive CMP-sialic acids as substrates for 2,6-sialyltransferase” (Bioorg Med Chem Lett, 1995)

T1: Beta-galactoside alpha-2,6-sialyltransferase 1 (Rattus norvegicus) (UniProt P13721)
T1 sequence (whole entry): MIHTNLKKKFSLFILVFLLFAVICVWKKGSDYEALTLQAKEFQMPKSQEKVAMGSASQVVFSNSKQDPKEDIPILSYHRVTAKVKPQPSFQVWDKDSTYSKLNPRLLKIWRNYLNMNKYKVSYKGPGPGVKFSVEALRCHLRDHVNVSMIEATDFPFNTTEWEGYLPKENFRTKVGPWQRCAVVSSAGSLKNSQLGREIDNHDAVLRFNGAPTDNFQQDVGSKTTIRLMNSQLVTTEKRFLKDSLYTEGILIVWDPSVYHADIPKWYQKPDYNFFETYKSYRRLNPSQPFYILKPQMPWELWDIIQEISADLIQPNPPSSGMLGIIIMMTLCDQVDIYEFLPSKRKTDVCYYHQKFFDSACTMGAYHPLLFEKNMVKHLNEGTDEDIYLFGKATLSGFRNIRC

B1: Beta-galactoside alpha-2,6-sialyltransferase 1 (Rattus norvegicus), P13721 (protein)
chain: T1 sequence (whole entry)

Key:
[1] = target: T1, Beta-galactoside alpha-2,6-sialyltransferase 1 (Rattus norvegicus); test: Evaluation of kinetic constant for rat liver GaI-beta-1,4GIcNAc alpha2,6-sialyltransferase in presence of compound
[2] = Evaluation of ratio of Michaelis-Menten constant to that of kinetic constant against 2,6-sialyltransferase in presence of compound
[3] = compound: [N-]=[N+]=Nc1ccc(C(=O)NCC(=O)NC2C(O)CC(OP(=O)(O)OC[C@H]3OC(n4ccc(N)nc4=O)[C@H](O)[C@@H]3O)(C(=O)O)OC2[C@H](O)[C@H](O)CO)cc1; test: (§1) Evaluation of Michaelis-Menten constant of rat liver GaI-beta-1,4GIcNAc alpha2,6-sialyltransferase in presence of compound
[4] = compound: CC(=O)NC1C(O)CC(OP(=O)(O)OC[C@H]2OC(n3ccc(N)nc3=O)[C@H](O)[C@@H]2O)(C(=O)O)OC1[C@H](O)[C@H](O)CNC(=O)c1ccc(N=[N+]=[N-])cc1; test: as §1
[5] = compound: NCC(=O)NC1C(O)CC(OP(=O)(O)OC[C@H]2OC(n3ccc(N)nc3=O)[C@H](O)[C@@H]2O)(C(=O)O)OC1[C@H](O)C(O)CO; test: as §1
[6] = compound: CC(=O)NC1C(O)CC(OP(=O)(O)OC[C@H]2OC(n3ccc(N)nc3=O)[C@H](O)[C@@H]2O)(C(=O)O)OC1[C@H](O)[C@H](O)CNC(=O)c1ccc(C(=O)c2ccccc2)cc1; test: as §1
[7] = compound: CC(=O)NC1C(O)CC(OP(=O)(O)OC[C@H]2OC(n3ccc(N)nc3=O)[C@H](O)[C@@H]2O)(C(=O)O)OC1[C@H](O)[C@H](O)CNC(=O)c1ccc(N=[N+]=[N-])cc1O; test: as §1

Molecule	Relative Vmax [1]	Ratio [2]	Km [3]	Km [4]	Km [5]	Km [6]	Km [7]
NCC(=O)NC1C(O)CC(OP(=O)(O)OC[C@H]2OC(n3ccc(N)nc3=O)[C@H](O)[C@@H]2O)(C(=O)O)OC1[C@H](O)C(O)CO (stereo not given in full)	1	22.2					
[N-]=[N+]=Nc1ccc(C(=O)NCC(=O)NC2C(O)CC(OP(=O)(O)OC[C@H]3OC(n4ccc(N)nc4=O)[C@H](O)[C@@H]3O)(C(=O)O)OC2[C@H](O)[C@H](O)CO)cc1 (stereo not given in full)	0.5	3.1					
CC(=O)NC1C(O)CC(OP(=O)(O)OC[C@H]2OC(n3ccc(N)nc3=O)[C@H](O)[C@@H]2O)(C(=O)O)OC1[C@H](O)[C@H](O)CNC(=O)c1ccc(N=[N+]=[N-])cc1O (stereo not given in full)	1.1	13.8					
CC(=O)NC1C(O)CC(OP(=O)(O)OC[C@H]2OC(n3ccc(N)nc3=O)[C@H](O)[C@@H]2O)(C(=O)O)OC1[C@H](O)[C@H](O)CNC(=O)c1ccc(C(=O)c2ccccc2)cc1 (stereo not given in full)	0.8	11.8					
CC(=O)NC1C(O)CC(OP(=O)(O)OC[C@H]2OC(n3ccc(N)nc3=O)[C@H](O)[C@@H]2O)(C(=O)O)OC1[C@H](O)[C@H](O)CNC(=O)c1ccc(N=[N+]=[N-])cc1 (stereo not given in full)	0.9	13.6					
B1			161 µM	66 µM	45 µM	68 µM	80 µM
